System: PDT-induced MVP release
Experiment: PDT-induced MVP release in skin and plasma of mice
Format: in vivo
Settings: topical application, aSMase KO mice, data not shown
Experimental: Next, the role of PAF and aSMase in PDT-induced MVP release was assessed. […] Next, the ability of topical PDT to generate MVP in vivo in mice, and the role of aSMase in this process, was determined. […] Two approaches were used to determine if PDT-induced MVP involved aSMase.
The role of aSMase in PDT-mediated MVP release was evaluated in a murine system. For the data shown in FIG. 18, wild-type mice were treated with either sham, 100 μl of 5 mM IMIP, or 90% polyethylene glycol: 10% DMSO vehicle, or 1 μM TPA (as a positive control for MVP release), or PDT using 20 J/cm^2 blue light. Immediately following PDT, the treated areas were given vehicle or imipramine. At 4 hours post-treatment, the mice were euthanized and MVP were measured from duplicate 6-mm punch biopsies and plasma. The data are mean±SD fold increase in MVP normalized to tissue weight/plasma volume. * Denotes statistically significant (P<0.05) changes from sham; #statistically significant (P<0.05) changes from comparator denoted by line by two-way ANOVA; NS not statistically significant.
To confirm the role of aSMase in PDT-induced MVP generation, PDT effects were evaluated in the absence of aSMase was evaluated in a murine system. For the data shown in FIG. 19, wild-type or aSMase-deficient (Smpd1−/−) mice underwent sham or PDT using 20 J/cm^2 blue light. At 4 hours post-treatment, the mice were euthanized and MVP were measured from duplicate 6-mm punch biopsies and plasma. The data are mean±SD fold increase in MVP normalized to tissue weight/plasma volume. * Denotes statistically significant (P<0.05) changes from sham; NS not statistically significant.
In the case of CCCCCCCCCCCCC/C=C/[C@@H](O)[C@H](CO)NC(C)=O [C-2 ceramide], the “MVP generation in aSMase KO mice” value is reported as “generates MVP in the aSMase KO mice”.

Same assay, conditions: wild-type mice, 1 μM TPA, positive control, 4 h
For CCCCCCCCCCCCCC(=O)O[C@@H]1[C@@H](C)[C@@]2(O)[C@@H](C=C(CO)C[C@]3(O)C(=O)C(C)=C[C@@H]23)[C@@H]2C(C)(C)[C@]12OC(C)=O [TPA, 12-O-tetradecanoylphorbol-13-acetate], the “MVP levels after topical TPA” value was “resulted in increased levels of MVP”.

System: not given
Experiment: not given
Settings: hairless mice, effect of propylene glycol; cited from earlier work
For CNCCCN1c2ccccc2CCc2ccccc21 [Desipramine], the “absorption with propylene glycol” value is given as “enhances absorption”. In the case of CNCCC=C1c2ccccc2CCc2ccccc21 [Nortriptyline], the “absorption with propylene glycol” value is given as “enhances absorption”.

System: aSMase
Experiment: not given
Settings: 10 micromolar, PC12 cells, incubation time 0.5 h; % of corresponding control values; cited from earlier work
In the case of CNCCCC12CCC(c3ccccc31)c1ccccc12 [Maprotiline], the “Residual ASM Activity” value is listed as 13.5%. In the case of OCCN1CCN(CC/C=C2/c3ccccc3Sc3ccc(C(F)(F)F)cc32)CC1 [Flupenthixol], the “Residual ASM Activity” value is listed as 18.2%. For Clc1ccccc1CNCC1CCC(CNCc2ccccc2Cl)CC1 (centres unmarked) [AY9944, N-[(2-chlorophenyl)methyl]-1-[4-[[(2-chlorophenyl)methylamino]methyl]cyclohexyl]methanamine], the “Residual ASM Activity” value is given as 22.1%. In the case of CCN(CC)C(C)CN1c2ccccc2Sc2ccccc21 (centres unmarked) [Profenamine], the “Residual ASM Activity” value is given as 29.7%. For CN(C)CCC=C1c2ccccc2C=Cc2ccccc21 [Cyclobenzaprine], the “Residual ASM Activity” value is given as 26.2%. In the case of CC(C)(C)c1ccc(C(O)CCCN2CCC(C(O)(c3ccccc3)c3ccccc3)CC2)cc1 (centres unmarked) [Terfenadine], the “Residual ASM Activity” value is listed as 21.8%. For CNCCC(Oc1ccc(C(F)(F)F)cc1)c1ccccc1 (centres unmarked) [Fluoxetine], the “Residual ASM Activity” value is listed as 13.0%. For CN(C)CCCN1c2ccccc2CCc2ccc(Cl)cc21 [Clomipramine], the “Residual ASM Activity” value is given as 21.8%. For NCCC(Oc1ccc(C(F)(F)F)cc1)c1ccccc1 (centres unmarked) [Norfluoxetine], the “Residual ASM Activity” value is given as 22.5%. In the case of CN(C)CCCN1c2ccccc2Sc2ccccc21 [Promazine], the “Residual ASM Activity” value is listed as 33.6%. For CC(NCCC(c1ccccc1)c1ccccc1)c1ccccc1 (centres unmarked) [Fendiline], the “Residual ASM Activity” value is given as 25.2%. In the case of Fc1ccc([C@@H]2CCNC[C@H]2COc2ccc3c(c2)OCO3)cc1 [Paroxetine], the “Residual ASM Activity” value is listed as 31.7%. In the case of CN1[C@@H]2CC[C@H]1C[C@@H](OC(c1ccccc1)c1ccccc1)C2 [Benztropine], the “Residual ASM Activity” value is given as 12.7%. For CNCCCN1c2ccccc2CCc2ccccc21 [Desipramine], the “Residual ASM Activity” value is given as 15.6%. For CN[C@H]1CC[C@@H](c2ccc(Cl)c(Cl)c2)c2ccccc21 [Sertraline], the “Residual ASM Activity” value is listed as 12.3%. In the case of CN(C)CCCN1c2ccccc2Sc2ccc(C(F)(F)F)cc21 [Triflupromazine], the “Residual ASM Activity” value is given as 29.5%. For CCN(CC)CCOc1ccc(C(=C(Cl)c2ccccc2)c2ccccc2)cc1 [Clomiphene], the “Residual ASM Activity” value is given as 13.0%. In the case of CNCCC=C1c2ccccc2CCc2ccccc21 [Nortriptyline], the “Residual ASM Activity” value is given as 13.3%. In the case of C1CCC(C(CC2CCCCN2)C2CCCCC2)CC1 (centres unmarked) [Perhexiline], the “Residual ASM Activity” value is given as 8.5%. In the case of CC(CN1c2ccccc2Sc2ccccc21)N(C)C (centres unmarked) [Promethazin], the “Residual ASM Activity” value is given as 32.2%. For CC(CN(C)C)CN1c2ccccc2CCc2ccccc21 (centres unmarked) [Trimipramine], the “Residual ASM Activity” value is given as 13.8%. In the case of CNCCCC1c2ccccc2C=Cc2ccccc21 [Protriptyline], the “Residual ASM Activity” value is given as 12.7%. For OCCN1CCN(CCCN2c3ccccc3Sc3ccc(Cl)cc32)CC1 [Perphenazine], the “Residual ASM Activity” value is given as 20.1%.

Same assay, conditions: 10 micromolar, PC12 cells, incubation time 6 h; % of corresponding control values; cited from earlier work
In the case of COCC(=O)O[C@]1(CCN(C)CCCc2nc3ccccc3[nH]2)CCc2cc(F)ccc2[C@@H]1C(C)C [Mibefradil], the “Residual ASM Activity” value is given as 20.8%. In the case of COc1ccc(CCN2CCC(Nc3nc4ccccc4n3Cc3ccc(F)cc3)CC2)cc1 [Astemizole], the “Residual ASM Activity” value is listed as 14.3%. In the case of c1cc(CN2CCCCC2)cc(OCCCNc2nc3ccccc3s2)c1 [Zolantidine_(SKB41), Zolantidine], the “Residual ASM Activity” value is listed as 21.6%. In the case of CSc1ccc2c(c1)N(CCC1CCCCN1C)c1ccccc1S2 (centres unmarked) [Thioridazin], the “Residual ASM Activity” value is given as 10.4%. For OC1(c2ccc(Cl)c(C(F)(F)F)c2)CCN(CCCC(c2ccc(F)cc2)c2ccc(F)cc2)CC1 [Penfluridol], the “Residual ASM Activity” value is listed as 22.0%. For CCN(CC)CCCN(c1ccccc1)C1Cc2ccccc2C1 [Aprindine], the “Residual ASM Activity” value is given as 27.5%. For CC/C(=C(\c1ccccc1)c1ccc(OCCN(C)C)cc1)c1ccccc1 [Tamoxifen], the “Residual ASM Activity” value is given as 4.1%. For CN1CCN(CCCN2c3ccccc3Sc3ccc(C(F)(F)F)cc32)CC1 [Trifluoperazine], the “Residual ASM Activity” value is listed as 8.3%.

Same assay, conditions: 10 micromolar, PC12 cells, incubation time 24 h; % of corresponding control values; cited from earlier work
For CC[C@H]1CN2CCc3cc(OC)c(OC)cc3[C@@H]2C[C@@H]1C[C@H]1NCCc2cc(OC)c(OC)cc21 [Emetine], the “Residual ASM Activity” value is listed as 0.4%. For CCN(CC)CCNC(C(=O)OCCC(C)C)c1ccccc1 (centres unmarked) [Camylofin], the “Residual ASM Activity” value is given as 21.7%. In the case of CN(CCCN1c2ccccc2CCc2ccccc21)CC(=O)c1ccc(Cl)cc1 [Lofepramine], the “Residual ASM Activity” value is given as 19.2%. In the case of CC(C)COCC(CN(Cc1ccccc1)c1ccccc1)N1CCCC1 (centres unmarked) [Bepridil], the “Residual ASM Activity” value is listed as 27.1%. For C[C@H]1[C@H]2CC[C@H]3[C@@H]4CC=C5C[C@@H](N(C)C)CC[C@]5(C)[C@H]4CC[C@]23CN1C [Conessine], the “Residual ASM Activity” value is given as 20.8%. In the case of CN1CCC(=C2c3ccccc3Sc3ccccc32)CC1 [Pimethixene], the “Residual ASM Activity” value is listed as 16.5%. In the case of C[C@H]1CC[C@]2(NC1)O[C@H]1C[C@H]3[C@@H]4CC[C@H]5C[C@@H](O)CC[C@]5(C)[C@H]4CC[C@]3(C)[C@H]1[C@@H]2C [Tomatidine], the “Residual ASM Activity” value is given as 15.8%. In the case of COc1ccccc1OCCNCC(O)COc1cccc2[nH]c3ccccc3c12 (centres unmarked) [Carvedilol], the “Residual ASM Activity” value is listed as 22.4%. In the case of CCCCc1oc2ccccc2c1C(=O)c1cc(I)c(OCCN(CC)CC)c(I)c1 [Amiodarone], the “Residual ASM Activity” value is listed as 14.5%. In the case of CCN(CCCc1ccccc1)CCCc1ccccc1 [Alverine], the “Residual ASM Activity” value is listed as 21.7%. For CCN(CCCCOC(=O)c1ccc(OC)c(OC)c1)C(C)Cc1ccc(OC)cc1 (centres unmarked) [Mebeverine], the “Residual ASM Activity” value is listed as 31.8%. In the case of CCN(CC)CCOC(=O)C(c1ccccc1)C1CCCCC1 (centres unmarked) [Drofenine], the “Residual ASM Activity” value is listed as 20.8%. For Clc1ccc(C(OCCN2CCCCC2)c2ccccc2)cc1 (centres unmarked) [Cloperastine], the “Residual ASM Activity” value is listed as 26.7%. For OC(CCN1CCCCC1)(c1ccccc1)C1CC2C=CC1C2 (centres unmarked) [Biperidene], the “Residual ASM Activity” value is given as 26.2%. In the case of CN(C)C(=O)C(CCN1CCC(O)(c2ccc(Cl)cc2)CC1)(c1ccccc1)c1ccccc1 [Loperamide], the “Residual ASM Activity” value is listed as 24.4%.

Same assay, conditions: 10 micromolar, PC12 cells, incubation time 48 h; % of corresponding control values; cited from earlier work
For CN(Cc1cc(Br)cc(Br)c1N)C1CCCCC1 [Bromhexine], the “Residual ASM Activity” value is given as 102.8%. For CC(C)/N=c1\cc2n(-c3ccc(Cl)cc3)c3ccccc3nc-2cc1Nc1ccc(Cl)cc1 [Clofazimine], the “Residual ASM Activity” value is given as 23.7%. In the case of Fc1ccc(C(c2ccc(F)cc2)N2CCN(C/C=C/c3ccccc3)CC2)cc1 [Flunarizine], the “Residual ASM Activity” value is listed as 32.7%.

Same assay, conditions: from Kornhuber et al. 2008; cited from earlier work
For O=C(CCCN1CCC(O)(c2ccc(Cl)cc2)CC1)c1ccc(F)cc1 [haloperidol], the “residual aSMase activity after treatment” value is listed as 86.1%.

System: HaCaT keratinocytes
Experiment: PDT (5-ALA + blue light) MVP release in HaCaT keratinocytes
Format: cell-based, human
Settings: HaCaT, 1 mM 5-ALA 4 hours then 2.5-20 J/cm^2 blue light, 4 h
Experimental: PDT results in acute cellular destruction and inflammation and photosensitivity, as well as delayed immunosuppression. […] Thus, it was of further interest whether experimental PDT of HaCaT keratinocytes generated MVP in vitro. To that end, HaCaT cells were pretreated with 5-ALA alone, or blue light alone, or a 4 hour incubation of 5-ALA in the dark followed by various fluences of blue light, and MVP were measured in the supernatants at 4 hours post blue light. 100 nM CPAF and TPA were used as positive controls for MVP release.
For the data shown in FIG. 14, HaCaT keratinocytes were treated with sham (no treatment), 0.1% ethanol vehicle control (VEH), 100 nM TPA, 100 nM CPAF, 1 mM 5-ALA for 4 hours, or 5-ALA followed by various fluences (2.5-20 J/cm^2) of blue light or blue light alone. Levels of MVPs released into supernatants were measured at 4 hours. […] For the data shown in FIG. 15, human skin explants were treated with sham, 100 μL vehicle (90% ethanol+10% DMSO) (VEH), 1 μM TPA, 1 µM CPAF, 1 mM 5-ALA for 4 hours, blue light or 5-ALA+blue light at 20 J/cm^2. After four hours, duplicate 6-mm punch biopsies were obtained, weighed, and MVPs were measured. The data are the mean±SE from 3-4 separate experiments conducted in duplicate. * Denotes statistically significant (P <0.05) changes from sham values.
Supernatants were collected at 4 hours and MVP measured. The data are the mean±SE MVP fold change from sham-treated values. For the data shown in FIG. 17, human skin explants were treated as in FIG. 15, with the exception that in some experiments 100 μL of 5 mM IMIP was added post-PDT. MVP were measured in duplicate 6-mm punch biopsies obtained 4 hours post-treatment.
With NCC(=O)CCC(=O)O [Compound 5-ALA, 5-aminolevulinic acid] the “MVP generation, 5-ALA along with blue light (PDT)” value was “resulted in high levels of MVP generation in a dosage-dependent manner”.

Same assay, conditions: HaCaT, 1 mM 5-ALA 4 hours without blue light
In the case of NCC(=O)CCC(=O)O [Compound 5-ALA, 5-aminolevulinic acid], the “MVP formation, 5-ALA alone” value is reported as “did not generate appreciate MVP formation”.

Reference: patent publication US20240245703A1, “TOPICAL APPLICATION OF AGENTS TO REDUCE SUN SENSITIVITY AND IMPROVE TOPICAL PHOTODYNAMIC THERAPY” (Wright State University, priority 2021, published 2024)
